This is an account of results in patent EP1593384A2, “Compositions for treatment of sexual dysfunction” (Palatin Technologies, Inc., priority 1999, dated 2005).

Usually Ki stands for the equilibrium dissociation constant of an inhibitor or competing ligand from its target.

One assay has as its system human MC4-R. The assay can be described thus: Agonist activity by cAMP detection in transfected HEK 293 cells. The class given is cell-based. The conditions noted are these: conclusion from cAMP results.
For assay [1], the system named is Sprague Dawley rats. The assay can be described thus: Induced penile erection by intravenous injection. The class given is in vivo. The conditions noted are these: for dose resulting in (equivalent) penile response: intravenous injection in rats; for efficacious dose, efficacy determined by induction of penile erection in 100% of animals: intravenous injection, rats; for % Rats with Penile Erection / Number of Erections/Rat/30 Minutes: intravenous.

Another assay addresses MC1-R. The conditions noted are these: read-out: RELATIVE BINDING (KI) MC1-R; competitive inhibition; B16-F1 melanoma cells as receptor source.
In assay [2] the test system is men with psychogenic erectile dysfunction. The following applies: subcutaneous, 0.025 to 0.157 mg/kg body weight; cited from earlier work.
Assay [3] deals with Sprague Dawley rats. Description: Induced penile erection by intranasal administration (dosing study). The class given is in vivo. The conditions noted are these: for % Rats with Penile Erection / Number of Erections/Rat/30 Minutes: intranasal.
The target of a further assay is MC5-R. The following applies: read-out: RELATIVE BINDING (KI) MC5-R; competitive inhibition; transfected HEK 293 cells.
Another assay deals with MC3-R. The following applies: read-out: RELATIVE BINDING (KI) MC3-R; competitive inhibition; transfected HEK 293 cells.

Description for MC1-R: (§1) Relative binding was determined by competitive inhibition using α-MSH. B16-F1 melanoma cells were used as the source of MC1 receptors; HEK 293 cells, transfected with human melanocortin receptor sequences, were used as the source of MC3, MC4 and MC5 receptors; and Y1 cells were used as the source of MC2 receptors.
Description for MC3-R: as §1
Description for MC5-R: as §1
Description for human MC4-R: HEK 293 cells, stably transfected with human MC4-R, were used. […] Following incubation, the medium was aspirated and cell layers extracted. The total cAMP accumulation in fixed quantities of cell extract was determined by competitive immunoassay using the cAMP kit.

Regarding “Ac-Nle-cyclo(-Asp-His-D-Phe-Arg-Trp-Lys)-OH [Compound 1]”, the “agonist activity to MC4-R” value with human MC4-R was “exhibits agonist activity”. In the assay with Sprague Dawley rats [1], the “dose resulting in (equivalent) penile response” value is on record as 2 µg/kg of body weight and the “efficacious dose, efficacy determined by induction of penile erection in 100% of animals” value was ≥ 1 µg/kg of body weight.
Consider Melanotan-II, for which the values for the inhibition constant (Ki) at MC1-R, on MC5-R and at MC3-R were 0.12 nM, 69.5 nM and 23.7 nM, respectively. In addition, the “treated men developing clinically apparent erections” value in assay [2] is listed as 8 of 10. In addition, the “% Rats with Penile Erection” value with Sprague Dawley rats [3] (dose 100 µg/kg) is recorded as 25%; with Sprague Dawley rats [3] (dose 500 µg/kg) it was 100%; with Sprague Dawley rats [1] (dose 10.0 µg/kg) it was 17%; with Sprague Dawley rats [1] (dose 100.0 µg/kg), 75%. Besides, the “Number of Erections/Rat/30 Minutes” value in the assay on Sprague Dawley rats [3] (dose 100 µg/kg) came to 0.25; in the assay on Sprague Dawley rats [3] (dose 500 µg/kg) it was 1.0; in the assay on Sprague Dawley rats [1] (dose 10.0 µg/kg) it was 0.3; in the assay with Sprague Dawley rats [1] (dose 100.0 µg/kg), 1.0. In addition, in the assay with Sprague Dawley rats [3] (nasal administration, rats, 30 minutes), the “period in which the penile erection response primarily occurred” value was 2nd and 3rd ten-minute period. The “dose resulting in (equivalent) penile response” value with Sprague Dawley rats [1] is given as 100 µg/kg of body weight. For the same substance, the “efficacious dose, efficacy determined by induction of penile erection in 100% of animals” value in the assay with Sprague Dawley rats [1] is ≥ 100 µg/kg of body weight.
